The results in this text go back to article PMC11869560, “Anticancer and cancer preventive activities of shogaol and curcumin from Zingiberaceae family plants in KG-1a leukemic stem cells” (BMC Complementary Medicine and Therapies, 2025).

The test system of experiment [1] is KG-1a cells. In words: Trypan blue exclusion test, cell numbers of KG-1a cells. It is filed as cell-based, human. As to conditions: IC20 concentrations, 48 h. The protocol:
This test was used to confirm the cytotoxicity of the test samples. The cancer cells after exposure to crude ethanolic extracts and active compounds for 48 h were harvested and washed with ice-cold PBS, pH 7.4 for 3 times. Then, the cells were resuspended with PBS, pH 7.4. The cell suspensions were diluted with PBS, pH 7.4 at the appropriate dilution before being mixed with 0.2% trypan blue solution at 1:2 dilution for cell count on a hemocytometer. From this test, the viable cells and the dead cells could also be obviously detected.
This test was used to confirm the cytotoxicity of crude ethanolic extracts and active compounds. KG-1a cells after exposure to crude ethanolic extracts and active compounds for 48 h were harvested and washed with ice-cold PBS, pH 7.4 for 3 times. Then, the cells were resuspended with PBS, pH 7.4. The cell suspensions were diluted with PBS, pH 7.4 at the appropriate dilution before being mixed with 0.2% trypan blue solution at 1:2 dilution for cell count on a hemocytometer. From this test, the viable cells and the dead cells could also be obviously detected.

The next experiment concerns RAW264.7 cells. As to the kind of experiment: Cytotoxicity (IC20, cell viability) in RAW264.7 cells. Type of experiment: cell-based. As to conditions: Mus musculus, RAW264.7; incubation for 48 h; read-out: IC20 RAW264.7 (inhibitory concentration at 20% growth). The protocol:
MTT (3-(4,5-dimethylthiazol-2-yl)-2,5-diphenyltetrazolium bromide) assay was used to investigate the cytotoxicity of the test samples. […] After that, 5 mg/mL of MTT dye solution (Sigma-Aldrich, MA, USA) was added and incubated for 4 h. The produced formazan crystals were dissolved in 200 μL of DMSO (Sigma-Aldrich, MA, USA); then, the optical density (OD) was measured using an ELISA plate reader ([…], Taiwan) at 578 nm with a reference wavelength of 630 nm. The percentage of surviving cells was calculated from the absorbance values of the test and control wells using the following Equation. 1 [drawing 1] […] Afterward, supernatants were collected, and the levels of TNF-α and NO were measured using the Mouse TNF alpha Uncoated ELISA Kit (InvitrogenTM, ThermoFisher Scientific, MA, USA) and the Total Nitric Oxide Assay Kit (InvitrogenTM, ThermoFisher Scientific, MA, USA), respectively, according to the manufacturer's instructions.

The next experiment concerns PBMCs. As to the kind of experiment: MTT cytotoxicity assay in PBMCs. It is filed as cell-based, human. As to conditions: Homo sapiens, PBMC. Here is the method:
PBMCs were isolated from blood samples using the Ficoll-Hypaque technique. Initially, 10–20 mL of blood was collected in a heparin tube at a ratio of 1:500 from a minimum of three healthy volunteers. Subsequently, the blood samples were diluted with Phosphate buffer saline (PBS), pH 7.4, at a ratio of 1:1 to reduce viscosity. Histopaque-1077 (Sigma-Aldrich, MA, USA) was then underlaid the diluted sample and centrifuged at 400×g for 30 min. The resulting PBMCs were collected, washed with PBS, pH 7.4, and prepared for further experiments.
(§1) MTT (3-(4,5-dimethylthiazol-2-yl)-2,5-diphenyltetrazolium bromide) assay was used to investigate the cytotoxicity of the test samples. KG-1a (1.5 × 10^4 cells/well), K562 (1.0 × 10^4 cells/well), PBMCs (1.0 × 10^5 cells/well), A549 (5.0 × 10^3 cells/well), MCF-7 (5.0 × 10^3 cells/well), and HeLa (5.0 × 10^3 cells/well) were seeded into a 96-well plate and incubated overnight at 37 °C with 5% CO2. […] After that, 5 mg/mL of MTT dye solution (Sigma-Aldrich, MA, USA) was added and incubated for 4 h. The produced formazan crystals were dissolved in 200 µL of DMSO (Sigma-Aldrich, MA, USA); then, the optical density (OD) was measured using an ELISA plate reader (Metertech, Taipei, Taiwan) at 578 nm with a reference wavelength of 630 nm. The percentage of surviving cells was calculated from the absorbance values of the test and control wells using the following Equation. 1 [drawing 1]
(§2) where ODsample is a mean absorbance in test well and ODvehicle control is a mean absorbance in VC well. The average percentage of surviving cells at each concentration obtained from triplicate experiments was plotted as a dose-response curve. Inhibitory concentration values at 50% growth (IC50 value) were defined as the lowest concentration of the test sample that inhibited cell growth by 50% compared to the untreated control.
(§3) To calculate IC50 values, a dose-response curve was fitted using non-linear regression analysis, as described in the GraphPad Prism guidelines (https://www.graphpad.com/support/faq/how-to-determine-an-icsub50sub/). The IC50 value was obtained by determining the point at which the curve intersected 50% growth inhibition. Non-linear regression graphs of the dose-response curve for each compound are provided in the supplementary data file (Figs. S1–S8).
(In general: Formazan colour is commonly taken as a measure of viable cells.)

Experiment [2] relates to KG-1a cells. As to the kind of experiment: MTT cytotoxicity assay in KG-1a cells. As to conditions: for Selectivity index (SI): IC50 for normal cells (PBMCs) / IC50 for cancer cells (KG-1a). Type of experiment: cell-based, human. Here is the method:
as §1, §2, §3
where IC50 N is IC50 for normal cells and IC50 C is IC50 for cancer cells which were treated with the same compounds in both cells.

Setting [3] is: Table S8, PBMCs, first replicate, read-out: IC50 value R1.
Setting [4] is: Table S8, PBMCs, second replicate, read-out: IC50 value R2.
[5] abbreviates: Table S8, PBMCs, third replicate, read-out: IC50 value R3.
Where [6] appears, read: active compounds and drugs, MTT, 48 h, read-out: IC50 PBMCs.
[7] abbreviates: Homo sapiens, KG-1a, 48 h, active compounds and drugs, MTT, 48 h, read-out: IC50 KG-1a.
The mark [8] stands for this setting: Homo sapiens, KG-1a, Table S7, KG-1a, first replicate, read-out: IC50 value R1.
[9] abbreviates: Homo sapiens, KG-1a, Table S7, KG-1a, second replicate, read-out: IC50 value R2.
Where [10] appears, read: Homo sapiens, KG-1a, Table S7, KG-1a, third replicate, read-out: IC50 value R3.
The mark [11] stands for this setting: Table S8, PBMCs, mean of R1-R3, read-out: IC50 value Mean.
The mark [12] stands for this setting: drugs, MTT, 48 h, read-out: IC50 PBMCs.
Where [13] appears, read: Homo sapiens, KG-1a, 48 h, drugs, MTT, 48 h, read-out: IC50 KG-1a.
Where [14] appears, read: Homo sapiens, KG-1a, Table S7, KG-1a, mean of R1-R3, read-out: IC50 value Mean.

Values after ≈ are worked out from the molar mass of the structure shown. Like-named read-outs stand apart in the source and are kept apart here.

On to `O=C(/C=C/c1ccc(O)cc1)CC(=O)/C=C/c1ccc(O)cc1` [Bisdemethoxycurcumin, bisdemethoxycurcumin], for which the “decrease of total cell number compared to VC” value with KG-1a cells [1] amounted to 47.21 ± 7.98%. For the same compound, the “normalized viable cell counts” value in the experiment on KG-1a cells [1] is 962.81 ± 19.30 × 10^3 cells per 1 million total cells. Besides, the IC20 came out at 2.71 ± 0.62 µg/mL (≈ 8.79 µM) with RAW264.7 cells; 6.9 ± 1.59 µg/mL (≈ 22.4 µM) in the experiment with PBMCs (incubation for 48 h, read-out: IC20 PBMCs (inhibitory concentration at 20% growth)); 7.97 ± 2.07 µg/mL (≈ 25.8 µM) with KG-1a cells [2] (Homo sapiens, KG-1a, 48 h, incubation for 48 h, read-out: IC20 KG-1a (inhibitory concentration at 20% growth)). In addition, the concentration for half-maximal inhibition (IC50) (in general, the concentration that inhibits the measured activity by half) with PBMCs (setting [3]) came out at 12.6 µg/mL (≈ 40.7 µM); in the experiment on PBMCs (setting [4]), 12.2 µg/mL (≈ 39.4 µM); in the experiment on PBMCs (setting [5]) it was 10.2 µg/mL (≈ 33.1 µM); in the experiment on PBMCs (setting [6]) it was 11.6 ± 1.25 µg/mL (≈ 37.8 µM); in the experiment on KG-1a cells [2] (setting [7]), 17.9 ± 0.99 µg/mL (≈ 58.1 µM); in the experiment with KG-1a cells [2] (setting [8]), 17.1 µg/mL (≈ 55.6 µM). In addition, the figures for the IC50 with KG-1a cells [2] (setting [9]) and in the experiment with KG-1a cells [2] (setting [10]) were 17.6 µg/mL (≈ 57 µM) and 19 µg/mL (≈ 61.7 µM), respectively. For the same compound, in the experiment with KG-1a cells [2] (48 h), the “Selectivity index (SI)” value was 0.65.
For `COc1cccc2c1C(=O)c1c(O)c3c(c(O)c1C2=O)C[C@@](O)(C(=O)CO)C[C@@H]3O[C@H]1C[C@H](N)[C@H](O)[C@H](C)O1` [Doxorubicin, doxorubicin, reference compound], the IC50 with PBMCs (setting [3]) was over 1 µg/mL; with PBMCs (setting [11]) it was over 1 µg/mL; in the experiment on PBMCs (setting [4]), over 1 µg/mL; in the experiment with PBMCs (setting [5]) it was over 1 µg/mL; in the experiment on PBMCs (setting [12]), over 1 µg/mL; in the experiment on KG-1a cells [2] (setting [13]) it was 0.652 ± 0.142 µg/mL (≈ 1.2 µM). For the same compound, the half-maximal inhibitory concentration (IC50) came out at 0.807 µg/mL (≈ 1.48 µM) in the experiment on KG-1a cells [2] (setting [8]), 0.622 µg/mL (≈ 1.14 µM) in the experiment on KG-1a cells [2] (setting [9]) and 0.528 µg/mL (≈ 0.971 µM) in the experiment on KG-1a cells [2] (setting [10]). For the same compound, the “Selectivity index (SI)” value is given as over 1.53 in the experiment with KG-1a cells [2] (48 h) and “greater than 1” in the experiment on KG-1a cells [2] (48 h, listed as doxorubicin).
In the case of `O=P1(N(CCCl)CCCl)NCCCO1` (centres unmarked) [Cyclophosphamide, cyclophosphamide, reference compound], the IC50 was over 400 µg/mL with PBMCs (48 h, read-out: IC50 PBMCs); over 400 µg/mL in the experiment with PBMCs (read-out: IC50 value Mean); over 400 µg/mL in the experiment with PBMCs (read-out: IC50 value R1); over 400 µg/mL with PBMCs (read-out: IC50 value R2); over 400 µg/mL in the experiment on PBMCs (read-out: IC50 value R3); over 400 µg/mL in the experiment on KG-1a cells [2] (Homo sapiens, KG-1a, 48 h, read-out: IC50 KG-1a). The half-maximal inhibitory concentration (IC50) in the experiment with KG-1a cells [2] (Homo sapiens, KG-1a, read-out: IC50 value Mean) was over 400 µg/mL; in the experiment on KG-1a cells [2] (Homo sapiens, KG-1a, read-out: IC50 value R1), over 400 µg/mL; with KG-1a cells [2] (Homo sapiens, KG-1a, read-out: IC50 value R2), over 400 µg/mL; in the experiment with KG-1a cells [2] (Homo sapiens, KG-1a, read-out: IC50 value R3), over 400 µg/mL.
For `CC(=O)[C@]1(O)Cc2c(O)c3c(c(O)c2[C@@H](O[C@H]2C[C@H](N)[C@H](O)[C@H](C)O2)C1)C(=O)c1ccccc1C3=O` [Idarubicin, idarubicin, reference compound], the IC50 was over 1 µg/mL with PBMCs (setting [3]); over 1 µg/mL with PBMCs (setting [11]); over 1 µg/mL in the experiment on PBMCs (setting [4]); over 1 µg/mL with PBMCs (setting [5]); over 1 µg/mL in the experiment on PBMCs (setting [12]); 0.0313 ± 0.00504 µg/mL (≈ 0.0629 µM) in the experiment with KG-1a cells [2] (setting [13]). For the same compound, the IC50 worked out at 0.0259 µg/mL (≈ 0.052 µM) in the experiment on KG-1a cells [2] (setting [8]), 0.0279 µg/mL (≈ 0.0561 µM) with KG-1a cells [2] (setting [14]), 0.0318 µg/mL (≈ 0.0639 µM) with KG-1a cells [2] (setting [9]) and 0.026 µg/mL (≈ 0.0522 µM) with KG-1a cells [2] (setting [10]).
Regarding `Nc1ccn([C@@H]2O[C@H](CO)[C@@H](O)[C@@H]2O)c(=O)n1` [Cytarabine, cytarabine, reference compound], the IC50 in the experiment on PBMCs (setting [3]), with PBMCs (setting [11]), with PBMCs (setting [4]), in the experiment on PBMCs (setting [5]), in the experiment with PBMCs (setting [6]) and in the experiment on KG-1a cells [2] (setting [7]) was over 100 µg/mL each time. Also, the IC50 in the experiment with KG-1a cells [2] (setting [8]), with KG-1a cells [2] (setting [14]), in the experiment on KG-1a cells [2] (setting [9]) and in the experiment on KG-1a cells [2] (setting [10]) was over 100 µg/mL each time. In addition, the “Selectivity index (SI)” value in the experiment on KG-1a cells [2] (48 h) is over 1.
